Consider 28 compounds from patent publication US9492453B2 (priority 2007, dated 2016).

One may read the pIC50 as −log10 of the IC50, conventionally taken in molar units.

pIC50: −log10 of the molar value. Like-named read-outs stand apart in the source and are kept apart here. A value given as a limit tells only on which side of the number the result lay.

One experiment relates to PKB (Akt). The following applies: read-out: Cellular PKB Mean IC50; MDA-MB-468 cells, phosphorylation of Serine-9 of GSK-3β, 2 hours incubation.
The target of the next experiment is AKT1 (PKBα) (Homo sapiens (Human), UniProt P31749). The following applies: read-out: In vitro PKBα Mean IC50, AKT1/PKBα active enzyme, Caliper LabChip LC3000.
AKT1 (PKBα), sequence (P31749 whole entry): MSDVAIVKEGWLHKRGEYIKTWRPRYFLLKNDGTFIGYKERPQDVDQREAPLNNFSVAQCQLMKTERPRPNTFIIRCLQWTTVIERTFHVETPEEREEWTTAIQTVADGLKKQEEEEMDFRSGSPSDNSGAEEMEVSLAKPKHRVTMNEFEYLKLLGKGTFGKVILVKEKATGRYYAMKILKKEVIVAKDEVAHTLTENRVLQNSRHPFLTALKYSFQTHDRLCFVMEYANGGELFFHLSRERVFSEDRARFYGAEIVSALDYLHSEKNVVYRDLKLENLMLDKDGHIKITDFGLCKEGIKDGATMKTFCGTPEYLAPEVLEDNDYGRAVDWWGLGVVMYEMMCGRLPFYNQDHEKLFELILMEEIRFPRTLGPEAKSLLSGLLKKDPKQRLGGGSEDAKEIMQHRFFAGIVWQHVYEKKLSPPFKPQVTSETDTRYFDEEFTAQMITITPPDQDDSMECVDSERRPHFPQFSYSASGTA

`NC1(C(=O)N[C@@H](CCO)c2ccc(Cl)cc2)CCN(c2ncnc3[nH]ncc23)CC1` [Example 20, (S)-4-amino-N-(1-(4-chlorophenyl)-3-hydroxypropyl)-1-(1H-pyrazolo[3,4-d]pyrimidin-4-yl)piperidine-4-carboxamide]: the pIC50 is 6.01 with PKB (Akt) and 7.70 on AKT1 (PKBα) (tested once only).

Regarding `CNCCC(NC(=O)C1(N)CCN(c2ncnc3[nH]ccc23)CC1)c1ccc(Cl)cc1` (centres unmarked) [Example 28, 4-amino-N-(1-(4-chlorophenyl)-3-(methylamino)propyl)-1-(7H-pyrrolo[2,3-d]pyrimidin-4-yl)piperidine-4-carboxamide], the pIC50 in the experiment on PKB (Akt) is 6.33; on AKT1 (PKBα), 8.35.

As for `C[C@@H](NC(=O)C1(CN)CCN(c2ncnc3[nH]ccc23)CC1)c1ccc(Cl)cc1` [Example 17, (R)-4-(aminomethyl)-N-(1-(4-chlorophenyl)ethyl)-1-(7H-pyrrolo[2,3-d]pyrimidin-4-yl)piperidine-4-carboxamide], the pIC50 in the experiment on PKB (Akt) is 6.62; at AKT1 (PKBα) it was 7.92.

Regarding `Cc1c[nH]c2ncnc(N3CCC(N)(C(=O)N[C@@H](CCO)c4ccc(Cl)cc4)CC3)c12` [Example 36, 4-amino-N-[(1S)-1-(4-chlorophenyl)-3-hydroxypropyl]-1-(5-methyl-7H-pyrrolo[2,3-d]pyrimidin-4-yl)piperidine-4-carboxamide], the pIC50 was 6.42 in the experiment on PKB (Akt) and 7.85 at AKT1 (PKBα).

With `NC1(C(=O)NC(Cc2nccs2)c2ccc(Cl)cc2)CCN(c2ncnc3[nH]ccc23)CC1` (centres unmarked) [Example 62, 4-amino-N-(1-(4-chlorophenyl)-2-(thiazol-2-yl)ethyl)-1-(7H-pyrrolo[2,3-d]pyrimidin-4-yl)piperidine-4-carboxamide], the negative logarithm of the IC50 (pIC50) in the experiment with PKB (Akt) was 6.25; on AKT1 (PKBα), 7.55.

As to `CC(C)(O)C[C@H](NC(=O)C1(N)CCN(c2ncnc3[nH]ccc23)CC1)c1ccc(Cl)cc1` [Example 38, 4-amino-N-[(1S)-1-(4-chlorophenyl)-3-hydroxy-3-methylbutyl]-1-(7H-pyrrolo[2,3-d]pyrimidin-4-yl)piperidine-4-carboxamide], the pIC50 in the experiment on PKB (Akt) was 6.44; at AKT1 (PKBα), 8.27.

With `NC(=O)NCCC(NC(=O)C1(N)CCN(c2ncnc3[nH]ccc23)CC1)c1ccc(Cl)cc1` (centres unmarked) [Example 67, 4-amino-N-(1-(4-chlorophenyl)-3-ureidopropyl)-1-(7H-pyrrolo[2,3-d]pyrimidin-4-yl)piperidine-4-carboxamide], the pIC50 is 6.05 with PKB (Akt) and 8.11 at AKT1 (PKBα) (tested once only).

Take `C[C@H](NC(=O)C1(N)CCN(c2ncnc3[nH]nc(Br)c23)CC1)c1ccc(Cl)cc1` [Example 31, 4-amino-1-(3-bromo-1H-pyrazolo[3,4-d]pyrimidin-4-yl)-N-[(1S)-1-(4-chlorophenyl)ethyl]piperidine-4-carboxamide]: the pIC50 is 5.96 with PKB (Akt) and 7.62 at AKT1 (PKBα).

For `CN1CCN(CC[C@H](NC(=O)C2(N)CCN(c3ncnc4[nH]ccc34)CC2)c2ccc(Cl)cc2)CC1` [Example 50, 4-amino-N-[(1S)-1-(4-chlorophenyl)-3-(4-methylpiperazin-1-yl)propyl]-1-(7H-pyrrolo[2,3-d]pyrimidin-4-yl)piperidine-4-carboxamide], the pIC50 in the experiment on PKB (Akt) was 6.72; at AKT1 (PKBα), 8.37.

Turning to `NC1(C(=O)NC(Cc2ncc[nH]2)c2ccc(Cl)cc2)CCN(c2ncnc3[nH]ccc23)CC1` (centres unmarked) [Example 59, 4-amino-N-(1-(4-chlorophenyl)-2-(1H-imidazol-2-yl)ethyl)-1-(7H-pyrrolo[2,3-d]pyrimidin-4-yl)piperidine-4-carboxamide], the pIC50 in the experiment with PKB (Akt) is 6.08; at AKT1 (PKBα), 8.20.

Turning to `N#CC(NC(=O)C1(N)CCN(c2ncnc3[nH]ccc23)CC1)c1ccc(Cl)cc1` (centres unmarked) [Example 45, 4-amino-N-[(4-chlorophenyl)(cyano)methyl]-1-(7H-pyrrolo[2,3-d]pyrimidin-4-yl)piperidine-4-carboxamide], the pIC50 in the experiment on PKB (Akt) was 6.11; at AKT1 (PKBα) it was 6.64.

Take `NC1(C(=O)N[C@@H](CCO)c2ccc(Br)cc2)CCN(c2ncnc3[nH]ccc23)CC1` [Example 24, (S)-4-amino-N-(1-(4-bromophenyl)-3-hydroxypropyl)-1-(7H-pyrrolo[2,3-d]pyrimidin-4-yl)piperidine-4-carboxamide]: the pIC50 was 7.22 in the experiment on PKB (Akt) and 8.66 on AKT1 (PKBα).

As for `C[C@H](NC(=O)C1(N)CCN(c2ncnc3[nH]cc(Br)c23)CC1)c1ccc(Cl)cc1` [Example 35, 4-amino-1-(5-bromo-7H-pyrrolo[2,3-d]pyrimidin-4-yl)-N-[(1S)-1-(4-chlorophenyl)ethyl]piperidine-4-carboxamide], the pIC50 in the experiment with PKB (Akt) is 6.55; at AKT1 (PKBα) it was 8.40.

Consider `NC1(C(=O)N[C@@H](CCO)c2ccc(Cl)cc2)CCN(c2ncnc3[nH]cc(Cl)c23)CC1` [Example 34, 4-amino-N-[(1S)-1-(4-chlorophenyl)-3-hydroxypropyl]-1-(5-chloro-7H-pyrrolo[2,3-d]pyrimidin-4-yl)piperidine-4-carboxamide], for which the pIC50 in the experiment with PKB (Akt) was 6.46; at AKT1 (PKBα), 8.04.

`Cc1c[nH]c2ncnc(N3CCC(N)(C(=O)N[C@@H](C)c4ccc(Cl)cc4)CC3)c12` [Example 37, 4-amino-N-[(1S)-1-(4-chlorophenyl)ethyl]-1-(5-methyl-7H-pyrrolo[2,3-d]pyrimidin-4-yl)piperidine-4-carboxamide]: the pIC50 was 6.26 in the experiment on PKB (Akt) and 7.72 at AKT1 (PKBα).

As to `N#CCC(NC(=O)C1(N)CCN(c2ncnc3[nH]ccc23)CC1)c1ccc(Cl)cc1` (centres unmarked) [Example 68, 4-amino-N-(1-(4-chlorophenyl)-2-cyanoethyl)-1-(7H-pyrrolo[2,3-d]pyrimidin-4-yl)piperidine-4-carboxamide], the pIC50 was 6.47 in the experiment on PKB (Akt) and 7.92 on AKT1 (PKBα).

For `C[C@H](NC(=O)C1(CN)CCN(c2ncnc3[nH]ccc23)CC1)c1ccc(Cl)cc1` [Example 6, (S)-4-(aminomethyl)-N-(1-(4-chlorophenyl)ethyl)-1-(7H-pyrrolo[2,3-d]pyrimidin-4-yl)piperidine-4-carboxamide], the figures for the pIC50 with PKB (Akt) and on AKT1 (PKBα) were 7.70 and 8.92, respectively.

On to `CC(=O)NCCC(NC(=O)C1(N)CCN(c2ncnc3[nH]ccc23)CC1)c1ccc(Cl)cc1` (centres unmarked) [Example 10, N-(3-acetamido-1-(4-chlorophenyl)propyl)-4-amino-1-(7H-pyrrolo[2,3-d]pyrimidin-4-yl)piperidine-4-carboxamide], for which the negative-log IC50 (pIC50) in the experiment with PKB (Akt) was 6.60; at AKT1 (PKBα), 8.38.

For the compound `NC1(C(=O)N[C@@H](CCO)c2ccccc2)CCN(c2ncnc3[nH]ccc23)CC1` [Example 21, (S)-4-amino-N-(3-hydroxy-1-phenylpropyl)-1-(7H-pyrrolo[2,3-d]pyrimidin-4-yl)piperidine-4-carboxamide], the pIC50 with PKB (Akt) was less than 5.51; on AKT1 (PKBα) (tested once only), 7.23.

Turning to `Cc1cc(CC(NC(=O)C2(N)CCN(c3ncnc4[nH]ccc34)CC2)c2ccc(Cl)cc2)on1` (centres unmarked) [Example 61, 4-amino-N-[1-(4-chlorophenyl)-2-(3-methylisoxazol-5-yl)ethyl]-1-(7H-pyrrolo[2,3-d]pyrimidin-4-yl)piperidine-4-carboxamide], the negative logarithm of the IC50 (pIC50) is 6.07 in the experiment with PKB (Akt) and 7.64 at AKT1 (PKBα).

With `NCC1(C(=O)N[C@@H](CCO)c2ccc(Cl)cc2)CCN(c2ncnc3[nH]ccc23)CC1` [Example 23, (S)-4-(aminomethyl)-N-(1-(4-chlorophenyl)-3-hydroxypropyl)-1-(7H-pyrrolo[2,3-d]pyrimidin-4-yl)piperidine-4-carboxamide], the pIC50 in the experiment with PKB (Akt) was 7.10; at AKT1 (PKBα) it was 8.89.

Take `C[C@H](NC(=O)C1(N)CCN(c2ncnc3[nH]cc(Cl)c23)CC1)c1ccc(Cl)cc1` [Example 32, 4-amino-N-[(1S)-1-(4-chlorophenyl)ethyl]-1-(5-chloro-7H-pyrrolo[2,3-d]pyrimidin-4-yl)piperidine-4-carboxamide]: the pIC50 was 6.38 in the experiment on PKB (Akt) and 7.92 at AKT1 (PKBα).

Turning to `NC1(C(=O)N[C@@H](CCn2ccnc2)c2ccc(Cl)cc2)CCN(c2ncnc3[nH]ccc23)CC1` [Example 54, 4-amino-N-[(1S)-1-(4-chlorophenyl)-3-(1H-imidazol-1-yl)propyl]-1-(7H-pyrrolo[2,3-d]pyrimidin-4-yl)piperidine-4-carboxamide], the pIC50 with PKB (Akt) was 6.74; on AKT1 (PKBα), 8.47.

Take `NCCC(NC(=O)C1(N)CCN(c2ncnc3[nH]ccc23)CC1)c1ccc(Cl)cc1` (centres unmarked) [Example 14, 4-amino-N-(3-amino-1-(4-chlorophenyl)propyl)-1-(7H-pyrrolo[2,3-d]pyrimidin-4-yl)piperidine-4-carboxamide]: the pIC50 with PKB (Akt) is 6.03; on AKT1 (PKBα) it was 8.52.

Turning to `N#Cc1ccc([C@H](CCO)NC(=O)C2(N)CCN(c3ncnc4[nH]ccc34)CC2)cc1` [Example 18, (S)-4-amino-N-(1-(4-cyanophenyl)-3-hydroxypropyl)-1-(7H-pyrrolo[2,3-d]pyrimidin-4-yl)piperidine-4-carboxamide], the pIC50 in the experiment on PKB (Akt) was 5.85; at AKT1 (PKBα), 7.80.

As to `NC1(C(=O)NC(Cn2cccn2)c2ccc(Cl)cc2)CCN(c2ncnc3[nH]ccc23)CC1` (centres unmarked) [Example 60, 4-amino-N-[1-(4-chlorophenyl)-2-(1H-pyrazol-1-yl)ethyl]-1-(7H-pyrrolo[2,3-d]pyrimidin-4-yl)piperidine-4-carboxamide], the pIC50 with PKB (Akt) was 6.33; on AKT1 (PKBα) it was 7.64.

With `NC(=O)CC(NC(=O)C1(N)CCN(c2ncnc3[nH]ccc23)CC1)c1ccc(Cl)cc1` (centres unmarked) [Example 66, 4-amino-N-(3-amino-1-(4-chlorophenyl)-3-oxopropyl)-1-(7H-pyrrolo[2,3-d]pyrimidin-4-yl)piperidine-4-carboxamide], the values for the pIC50 in the experiment on PKB (Akt) and on AKT1 (PKBα) (tested once only) were 6.00 and 8.18, respectively.

On to `NC1(C(=O)N[C@@H](CCN2CCOCC2)c2ccc(Cl)cc2)CCN(c2ncnc3[nH]ccc23)CC1` [Example 51, 4-amino-N-[(1S)-1-(4-chlorophenyl)-3-morpholin-4-ylpropyl]-1-(7H-pyrrolo[2,3-d]pyrimidin-4-yl)piperidine-4-carboxamide], for which the negative-log IC50 (pIC50) in the experiment on PKB (Akt) was 6.51; on AKT1 (PKBα) it was 8.00.
